PubChem BioAssay (NCI)
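Interpolation was linear, between the two tested concentrations surrounding the appropriate level; five concentrations were tested over 48 hours in 96-well plates. GI50 marks 50% less growth. TGI: concentration producing complete growth inhibition.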

How the values were obtained:
Experiment in all cases: NCI-60 cell line screen, 48 h
HOP-62 NSCLC = system: HOP-62 NSCLC
HCT-15 colon = system: HCT-15 colon
EKVX NSCLC = system: EKVX NSCLC
786-0 renal = system: 786-0 renal
HCT-116 colon = system: HCT-116 colon
SW-620 colon = system: SW-620 colon
HT29 colon = system: HT29 colon
U251 CNS = system: U251 CNS
SK-OV-3 ovarian = system: SK-OV-3 ovarian
M14 melanoma = system: M14 melanoma
SF-268 CNS = system: SF-268 CNS
NCI-H522 lung = system: NCI-H522 lung
UACC-62 melanoma = system: UACC-62 melanoma
MDA-MB-231 breast = system: MDA-MB-231 breast
PC-3 prostate = system: PC-3 prostate
SK-MEL-28 melanoma = system: SK-MEL-28 melanoma
K-562 leukemia = system: K-562 leukemia
OVCAR-8 ovarian = system: OVCAR-8 ovarian
A498 renal = system: A498 renal
CCRF-CEM leukemia = system: CCRF-CEM leukemia
SK-MEL-2 melanoma = system: SK-MEL-2 melanoma
CAKI-1 renal = system: CAKI-1 renal
A549 NSCLC = system: A549 NSCLC
MOLT-4 leukemia = system: MOLT-4 leukemia
OVCAR-3 ovarian = system: OVCAR-3 ovarian
UACC-257 melanoma = system: UACC-257 melanoma
ACHN renal = system: ACHN renal
T-47D breast = system: T-47D breast
OVCAR-4 ovarian = system: OVCAR-4 ovarian
HOP-92 NSCLC = system: HOP-92 NSCLC
HL-60(TB) leukemia = system: HL-60(TB) leukemia
BT-549 breast = system: BT-549 breast
SR leukemia = system: SR leukemia
DU-145 prostate = system: DU-145 prostate
HS 578T breast = system: HS 578T breast
RPMI-8226 leukemia = system: RPMI-8226 leukemia
LOX IMVI melanoma = system: LOX IMVI melanoma
SF-539 CNS = system: SF-539 CNS
SK-MEL-5 melanoma = system: SK-MEL-5 melanoma
SNB-75 CNS = system: SNB-75 CNS
COLO 205 colon = system: COLO 205 colon
RXF 393 renal = system: RXF 393 renal
UO-31 renal = system: UO-31 renal
KM12 colon = system: KM12 colon
SNB-19 CNS = system: SNB-19 CNS
SN12C renal = system: SN12C renal
IGROV1 ovarian = system: IGROV1 ovarian
TK-10 renal = system: TK-10 renal
NCI-H460 lung = system: NCI-H460 lung
SF-295 CNS = system: SF-295 CNS
MDA-MB-435 = system: MDA-MB-435
NCI-H226 lung = system: NCI-H226 lung
MCF7 breast = system: MCF7 breast

## O=C(NCc1ccc(Cl)cc1Cl)c1ccc(NC2=C(Cl)C(=O)N(Cc3ccccc3)C2=O)cc1
HOP-62 NSCLC
  GI50: 36.3 µM
  TGI: > 100 µM
HCT-15 colon
  GI50: 32.4 µM
  TGI: > 100 µM
EKVX NSCLC
  GI50: 36.4 µM
  TGI: > 100 µM
786-0 renal
  GI50: 30.1 µM
  TGI: > 100 µM
HCT-116 colon
  GI50: 53.5 µM
  TGI: > 100 µM
SW-620 colon
  GI50: 26.9 µM
  TGI: > 100 µM
HT29 colon
  GI50: 54.3 µM
  TGI: > 100 µM
U251 CNS
  GI50: 15.7 µM
  TGI: 34.2 µM
SK-OV-3 ovarian
  GI50: 57.5 µM
  TGI: > 100 µM
M14 melanoma
  GI50: 58.7 µM
  TGI: > 100 µM
SF-268 CNS
  GI50: 18.9 µM
  TGI: 49.1 µM
NCI-H522 lung
  GI50: 24.6 µM
  TGI: > 100 µM
UACC-62 melanoma
  GI50: 18.4 µM
  TGI: 39.8 µM
MDA-MB-231 breast
  GI50: 21.1 µM
  TGI: 55.9 µM
PC-3 prostate
  GI50: 14.3 µM
  TGI: 31.9 µM
SK-MEL-28 melanoma
  GI50: 41.6 µM
  TGI: > 100 µM
K-562 leukemia
  GI50: 9.98 µM
  TGI: 30.9 µM
OVCAR-8 ovarian
  GI50: 12 µM
  TGI: 26.5 µM
A498 renal
  GI50: 28.1 µM
  TGI: 56.8 µM
CCRF-CEM leukemia
  GI50: 1.41 µM
  TGI: 7.65 µM
SK-MEL-2 melanoma
  GI50: 78.8 µM
  TGI: > 100 µM
CAKI-1 renal
  GI50: 18.2 µM
  TGI: 52.4 µM
A549 NSCLC
  GI50: 36 µM
  TGI: > 100 µM
MOLT-4 leukemia
  GI50: 7.17 µM
  TGI: 23.9 µM
OVCAR-3 ovarian
  GI50: 31.9 µM
  TGI: > 100 µM
UACC-257 melanoma
  GI50: 61 µM
  TGI: > 100 µM
ACHN renal
  GI50: 20.8 µM
  TGI: 48.1 µM
T-47D breast
  GI50: 51.3 µM
  TGI: > 100 µM
OVCAR-4 ovarian
  GI50: 18.5 µM
  TGI: 40.3 µM
HOP-92 NSCLC
  GI50: 10.6 µM
  TGI: 27.8 µM
HL-60(TB) leukemia
  GI50: 14.8 µM
  TGI: 60.8 µM
BT-549 breast
  GI50: 20.3 µM
  TGI: 42 µM
SR leukemia
  GI50: 0.734 µM
  TGI: 2.55 µM
DU-145 prostate
  GI50: 39.9 µM
  TGI: > 100 µM
HS 578T breast
  GI50: 23.4 µM
  TGI: 52.7 µM
RPMI-8226 leukemia
  GI50: 4.45 µM
  TGI: 44.5 µM
LOX IMVI melanoma
  GI50: 7.02 µM
  TGI: > 100 µM
SF-539 CNS
  GI50: 21.3 µM
  TGI: 39.1 µM
SK-MEL-5 melanoma
  GI50: 24 µM
  TGI: 66.7 µM
SNB-75 CNS
  GI50: 17.8 µM
  TGI: 34.2 µM
COLO 205 colon
  GI50: 23.3 µM
  TGI: 66.5 µM
RXF 393 renal
  GI50: 18.7 µM
  TGI: 52.6 µM
UO-31 renal
  GI50: 3.41 µM
  TGI: > 100 µM
KM12 colon
  GI50: 38.4 µM
  TGI: > 100 µM
SNB-19 CNS
  GI50: 44.1 µM
  TGI: > 100 µM
SN12C renal
  GI50: 26.7 µM
  TGI: 75.5 µM
IGROV1 ovarian
  GI50: 15.8 µM
  TGI: > 100 µM
TK-10 renal
  GI50: 28.7 µM
  TGI: 91.4 µM
NCI-H460 lung
  GI50: 17.8 µM
  TGI: 47 µM
SF-295 CNS
  GI50: 32.8 µM
  TGI: > 100 µM
MDA-MB-435
  GI50: 33.4 µM
  TGI: > 100 µM
NCI-H226 lung
  GI50: 26.8 µM
  TGI: > 100 µM
MCF7 breast
  GI50: 11.9 µM
  TGI: 48.9 µM
